Where “and” joins values, the source holds several entries; their conditions need not be identical. Equal values may be shown once.
Columns and labels:
[1] = test system: activated gut T-lymphocytes in Crohn's disease; assay type: cell-based, human
transmembrane TNFα = settings: murine SP2/O myeloma cells with cleavage resistant transmembrane TNFα; Scatchard analyses; cited from earlier work
[2] = test system: gut T-cell cultures from patients with Crohn's disease; assay type: cell-based, human
[3] = test system: gut T-cell cultures from patients with Crohn's disease; assay type: cell-based, human; remark: listed apart in the source

transmembrane TNFα, sequence (P01375 88-233 limits assumed): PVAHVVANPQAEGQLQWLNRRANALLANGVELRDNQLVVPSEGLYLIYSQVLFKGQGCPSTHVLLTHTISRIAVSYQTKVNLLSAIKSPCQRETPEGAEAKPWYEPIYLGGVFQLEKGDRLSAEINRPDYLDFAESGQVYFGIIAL

Substance: Infliximab: chimeric TNFα antibody with high avidity for transmembrane TNFα, obtained from Centocor
- 24 hour production of IFNγ (in words) [1]: reduction
- Production of IFNγ and TNFα (in words) [1]: reduced
- Reduction of IFNγ production by Infliximab [1]: 68% and 43% and 49% and 56%
- Reduction of TNFα production by Infliximab [1]: 97%
- Infliximab molecules bound per cell (transmembrane TNFα): about 35000 molecules per cell
- Proliferation rate (in words) [2]: did not change the proliferation rate
- Amount of propidium iodide and Annexin-FITC positive cells compared with SEA alone [3]: did not increase
- Apoptosis (in words) [3]: did not induce any apoptosis

— patent publication US20020001841A1, “CONTINUOUS T-CELL LINES” (priority 1998, published 2002)
